Measured values: patent US4556662A, “Bispidine derivatives and antiarrhythmic compositions” (BASF Aktiengesellschaft, priority 1981, dated 1985)
In brackets after ≈: the same amount, converted by molar mass. Like-named read-outs stand apart in the source and are kept apart here.

Experiments:
[1] = test system: isolated guinea pig atrium; experiment: Isolated guinea pig left atria: decrease in maximum driving rate (antiarrhythmic activity); parameters: species or system guinea pig (Pirbright white, male); conditions: for EC50: Cavia porcellus, isolated left atria, pH 7.4, 32° C., read-out: Maximum driving rate EC 50% (concentration which causes a 50% decrease in the maximum driving rate); for Maximum driving rate R.A. (relative activity): reference substance B = 1.00
Experimental: (§1) The antiarrhythmic activity of the compound according to the invention is determined on isolated left atria of male guinea pigs (Pirbright white, weight 350 to 450 g). Atria suspended in an organ bath (volume 125 ml) containing carbogen (95% O2 /5% CO2)-saturated Tyrode's solution (pH 7.4, 32° C.) are prestressed with 1.0 g and are driven by square wave pulses of 1 Hz base rhythm and double stimulation threshold values (rheo base: 0.2 to 1.4 V, chronaxia: 0.3 to 0.5 msec). As a criterion of the antiarrhythmic activity, the frequency (in Hz) at which the atria are just still able to follow the sequence of pulses (the maximum driving rate) is determined by automatic continuous increase in frequency. The concentration which produces a 50% decrease in maximum driving rate, i.e. the EC 50%, is calculated from the linear relationship between log concentration (mg/1) of the active substance and relative decrease in maximum driving rate (Δ%).

[2] = test system: aconitine-induced arrhythmia in rats; experiment: Antiarrhythmic effect on aconitine-induced arrhythmia in the rat (oral); assay type: in vivo, rat (Sprague Dawley, male); conditions: for ED50: Rattus norvegicus, po, 1 h, read-out: Effective dose EC 50% (dose which prolongs the aconitine infusion time by 50%); for Effective dose R.A. (relative activity): rat, reference substance B = 1.00
Experimental: (§2) Moreover, the antiarrhythmic activity of the novel substances is determined on male rats (Sprague Dawley, weight 200 to 230 g), after oral administration. 45 minutes after administration of the substance, the animals are anesthetized with sodium thiobutabarbital (100 mg/kg, administered intraperitoneally). Aconitine is used as the arrhythmogenic substance, and is infused intravenously at a rate of 0.005 mg/kg per min, 60 minutes after administration of the test substance. […] The dose which prolongs the infusion time by 50%, i.e. the ED 50%, is determined from the linear relationship between log dose (mg/kg) of the test substance and the relative prolongation of the aconitine infusion time (%).

[3] = Toxicity in the rat (oral), dose at which toxic symptoms occur; assay type: in vivo, rat (Sprague Dawley, male); conditions: in vivo, read-out: Q: quotient of the acute toxic dose and the antiarrhythmic ED 50%
Experimental: as §2
(§3) Further, the dose at which toxic symptoms (changes in the initial ECG, cyanosis or cramp) occur is determined. The quotient of the acute toxic dose and the antiarrhythmic ED 50% is therefore determined as a measure of the toleration.

rat = experiment: as above; assay type: in vivo, rat (Sprague Dawley, male); conditions: for Toxic dose (dose after whose administration the first toxic symptoms are observed): changes in the initial ECG, cyanosis or cramp
Experimental: as §2, §3

[4] = test system: isolated guinea pig atrium; experiment: Isolated guinea pig left atria: decrease in force of contraction (negatively inotropic effect); parameters: species or system guinea pig (Pirbright white, male); conditions: for EC25: Cavia porcellus, isolated left atria, pH 7.4, 32° C., read-out: Force of contraction EC 25% (concentration which causes a 25% decrease in the force of contraction); for Q: quotient EC 25% (decrease in force of contraction)/EC 50% (decrease in maximum driving rate): isolated guinea pig atrium; for Force of contraction R.A. (relative activity): reference substance B = 1.00
Experimental: as §1
Furthermore, the concentration which produces a 25% decrease in contraction amplitude, i.e. the EC 25%, is determined, as a measure of the negatively inotropic effect, from the linear relationship between log concentration (mg/1) and relative change in contraction amplitude (Δ%).

[5] = test system: blood pressure of unanesthetized dogs; experiment: Effect on the blood pressure of unanesthetized dogs (intravenous); assay type: in vivo, dog
Experimental: Moreover, the effect of the compound according to the invention on the systolic and diastolic blood pressure of unanesthetized dogs on intravenous administration is tested.

[6] = test system: isolated strips of rat aorta; experiment: Constrictive effect on isolated strips of rat aorta; conditions: for EC50: spiral strips of rat aorta, 37° C.
Excerpt: The novel compounds are further characterized by investigation whether, in addition to antiarrhythmic properties, stimulating effects on smooth muscle, which may lead to undesirable side effects (hypertension or stimulation of the uterus), are detectable.

[7] = read-out: EC 50, constrictive effect (50% of the contraction obtained with noradrenalin 10^-6 mol/l)

## c1ccc(CN2CC3CC(C2)CN(CC(c2ccccc2)c2ccccc2)C3)cc1 [A, N-benzyl-N'-(2,2-diphenylethyl)-bispidine]
[1]
  EC50: 1.43 µg/mL (≈ 3.61 µM)
  Maximum driving rate R.A. (relative activity): 3.93
[2]
  ED50: 13 mg/kg
[2]; oral
  Effective dose R.A. (relative activity): 1.75
[3]
  selectivity ratio: 7.7
rat
  Toxic dose (dose after whose administration the first toxic symptoms are observed): 100 mg/kg
[4]
  EC25: 4.92 µg/mL (≈ 12.4 µM)
  Q: quotient EC 25% (decrease in force of contraction)/EC 50% (decrease in maximum driving rate): 3.44
  Force of contraction R.A. (relative activity): 4.43

## c1ccc(CN2CC3CC(C2)CN(Cc2ccccc2)C3)cc1 [B, N,N'-bisbenzylbispidine]
[1]
  EC50: 5.92 µg/mL (≈ 19.3 µM)
[5]
  effect on systolic and diastolic blood pressure (in words): substantial increase in the systolic and in particular in the diastolic blood pressure
[5]; 2.0 mg/kg
  Change in blood pressure, diastolic: +59 Δmm Hg
  Change in blood pressure, systolic: +20 Δmm Hg
[2]
  ED50: 22.7 mg/kg
[6]; [7]
  EC50: 3.8 µM
[3]
  selectivity ratio: 4.4
rat
  Toxic dose (dose after whose administration the first toxic symptoms are observed): 100 mg/kg
[4]
  EC25: 21.8 µg/mL (≈ 71.1 µM)
  Q: quotient EC 25% (decrease in force of contraction)/EC 50% (decrease in maximum driving rate): 3.68

## Nc1ccc(C(=O)N2CC3CC(CN(Cc4ccccc4)C3)C2)cc1 [C, N-(4-Aminobenzoyl)-N'-benzylbispidine]
[1]
  EC50: 6.14 µg/mL (≈ 18.3 µM)
  Maximum driving rate R.A. (relative activity): 0.96
[1]; decrease in maximum driving rate
  antiarrhythmic effect on isolated guinea pig atria (in words): powerful antiarrhythmic effect
[5]
  effect on systolic and diastolic blood pressure (in words): no hypertensive effect
[5]; 2.0 mg/kg
  Change in blood pressure, diastolic: -2 Δmm Hg
  Change in blood pressure, systolic: -5 Δmm Hg
[2]
  ED50: 6.37 mg/kg
[2]; aconitine-induced arrhythmia in rats, oral, versus A
  antiarrhythmic activity relative to reference substance A: twice
[2]; aconitine-induced arrhythmia in rats, oral, versus B
  antiarrhythmic activity relative to reference substance B: about 4 times
[2]; aconitine-induced arrhythmia in rats, oral, versus sparteine
  antiarrhythmic activity relative to sparteine: ~18 times
[2]; oral
  Effective dose R.A. (relative activity): 3.56
[6]; Table 3
  stimulating effects on smooth muscle (in words): lack of stimulating effects on smooth muscle
[6]; even in very high concentrations (3.10^-4 mol/l)
  constrictive effect on the vascular muscle in vitro (in words): no constrictive effect
[6]; no effect up to 3.10^-4 mol/l, read-out: EC 50, constrictive effect (symbol for no effect)
  EC50: > 300 µM
[3]
  selectivity ratio: 7.3
rat
  Toxic dose (dose after whose administration the first toxic symptoms are observed): 46.4 mg/kg
rat; versus reference substances
  difference between toxic and antiarrhythmic doses, relative to reference substances: about twice the difference or about the same difference, respectively
[4]
  EC25: 100 µg/mL (≈ 298 µM)
  Q: quotient EC 25% (decrease in force of contraction)/EC 50% (decrease in maximum driving rate): 16.3
  Force of contraction R.A. (relative activity): 0.22
[4]; isolated guinea pig atria
  decrease in the force of contraction (in words): relatively small decrease in the force of contraction

## C1CCN2C[C@@H]3C[C@@H](CN4CCCC[C@@H]34)[C@H]2C1 [Sparteine, sparteine]
[5]
  effect on systolic and diastolic blood pressure (in words): substantial increase in the systolic and in particular in the diastolic blood pressure
[5]; 5.0 mg/kg
  Change in blood pressure, diastolic: +40 Δmm Hg
  Change in blood pressure, systolic: +19 Δmm Hg
[2]
  ED50: 112 mg/kg
[2]; oral
  Effective dose R.A. (relative activity): 4.93
[6]; [7]
  EC50: 550 µM
[3]
  selectivity ratio: 4.1
rat
  Toxic dose (dose after whose administration the first toxic symptoms are observed): 464 mg/kg
